Here are results for eight compounds from patent US10058516B2, “Design, synthesis and methods of use of acyclic fleximer nucleoside analogues having anti-coronavirus activity” (priority 2015, dated 2018).

Each structure is given as a SMILES string. Like-named read-outs stand apart in the source and are kept apart here.

Data set [1] has as its system MERS-CoV (strain EMC/2012). Briefly: microbe, parasite or virus in culture. The format is cell-based. Particulars: for EC50: Middle East respiratory syndrome-related coronavirus, Huh-7, read-out: EC50: Effective concentration showing 50% inhibition of virus-induced CPE.
For data set [2], the system named is MERS-CoV (strain EMC/2012). Briefly: microbe, parasite or virus in culture. The class given is cell-based. Particulars: Middle East respiratory syndrome-related coronavirus, Vero, read-out: EC50: Effective concentration showing 50% inhibition of virus-induced CPE.
Data set [3] relates to Huh7 cells. The following applies: human.
The subject of data set [4] is Vero cells. The following applies: African green monkey.
The subject of data set [5] is SARS-CoV (strain Frankfurt-1).
Data set [6] has as its system VeroE6 cells. Particulars: African green monkey.
Data set [7] deals with SARS-CoV or MERS-CoV. Particulars: cited from earlier work.
Data set [8] relates to HIV-1 and HSV-2. Particulars: when McGuigan's ProTide technology was employed, cited from earlier work.
Data set [9] has as its system SARS-CoV (strain Frankfurt-1). Briefly: microbe, parasite or virus in culture. Particulars: Severe acute respiratory syndrome coronavirus.
In data set [10] the test system is HCoV-NL63. As to the kind of experiment: NL63-CoV antiviral assay (CPE scored microscopically).
The nature of data set [11]: Cytotoxicity in Vero118 cells (NL63 assay, cell viability scored microscopically). The following applies: African green monkey, Vero118 cells, CC50: Cytotoxic concentration showing 50% inhibition of cell survival, Vero118 (HCoV-NL63 assay).
Data set [12] in a line: in vitro. The following applies: human.
For data set [13], the system named is Vero118 cells. Briefly: Cytotoxicity in Vero118 cells (NL63 assay, cell viability scored microscopically). The following applies: read-out: CC50: Cytotoxic concentration showing 50% inhibition of cell survival; Vero118 (HCoV-NL63 assay).
Data set [14] has as its system coronavirus. Particulars: coronavirus replication in vitro; cited from earlier work.
Data set [15] concerns other viruses. The following applies: cited from earlier work.
[16] abbreviates: Vero C1008, read-out: EC50: Effective concentration showing 50% inhibition of virus-induced CPE.
Where [17] appears, read: Human coronavirus NL63, read-out: EC50: Effective concentration showing 50% inhibition of virus-induced CPE, HCoV-NL63 in Vero118.

As to `Nc1nc2c(ncn2COCCO)c(=O)[nH]1` [Acyclovir, acyclovir, reference compound], the “block the replication of MERS-CoV” value in data set [1] is “had no effect”. Moreover, the EC50 was above 1000 µM in [1], above 1000 µM in data set [2], above 1000 µM in [9] (setting [16]) and above 100 µM in [10] (setting [17]). The CC50 in data set [3], in data set [4] and in data set [6] was above 1000 µM in each case. For the same compound, in [5], the “block the replication of SARS-CoV” value is recorded as “had no effect”. Also, the “activity against SARS-CoV or MERS-CoV in vitro” value (from here on “activity … in vitro”) in data set [7] is “none of these well-known antiviral drugs exhibited any activity”. The “suppression of replication of both HIV-1 and HSV-2” value in data set [8] (CD4+ T cells) was 3 to 12 µmol/L; in data set [8] (lymphoid and cervicovaginal human tissues), “submicromolar range”. In data set [11], this compound gave a CC50 at 5 days above 100 µM.
As to `OCCOCn1cnc(-c2cnc(O)nc2O)c1` [Compound 1, 5-(1-((2-hydroxyethoxy)methyl)-1H-imidazol-4-yl)pyrimidine-2,4-diol], in data set [10] (setting [17]), the EC50 is 92 ± 68 µM. The compound further showed a CC50 at 5 days in data set [11] above 200 µM.
Regarding `COc1nc(N)ncc1-c1cn(COCCO)cn1` [Compound 2, 2-((4-(2-amino-4-methoxypyrimidin-5-yl)-1H-imidazol-1-yl)methoxy)ethan-1-ol], the “block the replication of MERS-CoV” value in data set [1] is reported as “can block the replication of MERS-CoV”. For the same compound, the EC50 in [1] is 13.5 µM; in data set [2] it was 10.1 ± 1.2 µM; in data set [9] (setting [16]), 28.1 ± 0.2 µM; in data set [10] (setting [17]), below 10 µM; in data set [10] (read-out: EC50: Effective concentration showing 50% inhibition of virus-induced CPE, HCoV-NL63 in Vero118), 8.8 ± 1.5 µM. For the same compound, the CC50 in data set [12] stood at 54 ± 1.7 µM; in data set [13] it was 120 ± 37 µM. In addition, the “selective antiviral activity (CC50>10×)” value in data set [10] (HCoV-NL63 in Vero118, CC50 relative to EC50) was above 10 ×. This compound also showed a CC50 at 5 days in data set [11] above 100 µM.
Regarding `Nc1ncc(-c2cn(COCCO)cn2)c(O)n1` [Compound 3, 2-amino-5-(1-((2-hydroxyethoxy)methyl)-1H-imidazol-4-yl)pyrimidin-4(3H)-one], the EC50 in [10] (setting [17]) is above 200 µM. In data set [11], this compound yielded a CC50 at 5 days above 200 µM.
`COc1nc(N)ncc1-c1cn(COCCOC(C)=O)cn1` [Compound 19, 2-((4-(2-amino-4-methoxypyrimidin-5-yl)-1H-imidazol-1-yl)methoxy)ethyl acetate]: the “block the replication of MERS-CoV” value in data set [1] is recorded as “can block the replication”. Further, the EC50 in data set [1] is 5.3 ± 0.7 µM; in data set [2], 3.4 ± 0.3 µM; in data set [9] (Vero C1008), below 12 µM; in [9] (setting [16]) it was 11.9 ± 0.2 µM. Also, the “CC50 as multiple of the EC50” value in data set [5] is on record as around 3 times the EC50. In addition, the “block the replication of SARS-CoV” value in data set [5] is “can block the replication”. The CC50 in data set [12] turned out to be 23.4 ± 0.4 µM.
Turning to `NC(=O)c1ncn([C@@H]2O[C@H](CO)[C@@H](O)[C@H]2O)n1` [Ribavirin, ribavirin], in [14], the inhibitory concentration is 500 to 5000 µg/mL. For the same compound, the “inhibitory concentration needed to inhibit other viruses” value in data set [15] is 50 to 100 µg/mL.
With `Nc1nc(O)c2ncn(COC(CO)CO)c2n1` [ganciclovir], the “activity … in vitro” value in data set [7] is recorded as “none of these well-known antiviral drugs exhibited any activity”.
In the case of `Cc1cn([C@H]2C[C@H](N=[N+]=[N-])[C@@H](CO)O2)c(=O)[nH]c1=O` [zidovudine], in data set [7], the “activity … in vitro” value is “none of these well-known antiviral drugs exhibited any activity”.
